These results are taken from US20090074802A1, “IMMUNOMODULATING OLIGOPEPTIDES” (priority 2006, published 2009).

The test deals with Balb/c mice immunized with KLH. The test is described as follows: Humoral immune response to T-cell dependent antigen (KLH) in mice; isotype-specific anti-KLH ELISA of serum. Format: in vivo, mouse. Conditions: day 28 after a single injection; 20 μg peptide i.p.; KLH 20 μg s.c. with complete Freund adjuvant. As to the method: To investigate the effect of B134, a representative of the XPY family, inbred SPF mice (Balb/cAwNCrl, 7 to 8 week old, Charles River Laboratories GmbH, Germany) were immunized with KLH, a T-cell dependent antigen. 3 mice per group were injected subcutaneously in the presence of complete Freund adjuvant (50/50 v/v). The mix of antigen (20 μg in 100 μl) with adjuvant (Sigma, #F-5881) was emulsified and injected in the neck region. At the same day 20 μg of immunomodulator B134 or B211 were injected in 200 μl of PBS intraperitoneally. Samples of blood (50-70 μl) were collected from mice on day 7, 14, 21, and 28 from the leg vein. Serum was prepared by clotting the blood for 2 hours at 37° C., followed by 18 hours at 8° C., and centrifugation at 10,000 rpm in an Eppendorf-like centrifuge. Sera were stored diluted with antibody stabilizer (SkyTec ABB500) at 4° C., and analyzed in ELISA simultaneously. For the latter assay, the 96 wells ELISA plates (Greiner, #655061) were coated with KLH (soluble, Sigma H7017) in phosphate buffered solution (PBS), 0.2 μg/well overnight at 4° C. The diluted sera were incubated with antigen ([…]) for 1 hour at room temperature, followed by a wash with PBS/0.1% Tween-20. The binding of mouse antibodies to KLH was detected using isotype specific anti-mouse immunoglobulins, conjugated with HRP (Southern Biotechnology Ltd., anti-mouse IgM #1021-05, anti-mouse IgG1 #1070-05, anti-mouse IgG2a # 1080-05, anti-mouse IgG2b #1090-05) according to the manufacturer's protocol. TMB was used as a substrate. The results were analyzed on Bio-Rad Microplate Reader Model 550, the optical density was measured at 595 nm.
Results shown in FIG. 1 represent titration slope of the serum from experimental mice. The dilutions of sera used are from 1/300 to 1/20,000 with a step of ½ (indicated on X axis as 1 to 6 respectively). The serum reactivity is presented as O.D. shown by a sample in ELISA. The dots represent the average reactivity of samples from 3 sera (from 3 mice per condition). The variation bar represents the 95% confidence interval.
Background: An ELISA detects its analyte on a solid surface through an enzyme-linked reagent.

Consider IEWIPY [B211], for which the “titer of IgG2a, times higher than in control mice immunized with antigen alone” value is on record as around 4 times; the “titer of IgG2b, times higher than in control mice immunized with antigen alone” value was around 4 times; the “titre of specific IgG1 in sera, times higher than in control mice immunized with antigen alone” value is on record as “approximately 16 times”.
On to Ile-Pro-Tyr [B134], for which the “titer of IgG2a, times higher than in control mice immunized with antigen alone” value is “approximately 2 times”; the “titer of IgG2b, times higher than in control mice immunized with antigen alone” value is given as “approximately 2 times”; the “titer of IgM, times higher than in control mice immunized with antigen alone (every isotype analyzed)” value is “approximately 2 times”; the “titre of specific IgG1 in sera, times higher than in control mice immunized with antigen alone” value was “approximately 2 times”.
